What was measured:
CSF glycine [1] = assay: Proof of clinical mechanism trial in healthy volunteers; assay type: in vivo, human; settings: 10 mg dose
[2] = Animal cognition tasks with CSF glycine and CSF compound levels; assay type: in vivo; settings: animals, efficacious doses
CSF glycine [3] = assay: as above; assay type: in vivo; settings: animals
[4] = test system: patients with mild to moderate dementia due to AD; assay: AD trial: cognition by ADAS-Cog11, compound I vs placebo; assay type: in vivo, human; settings: for Change from baseline in ADAS-Cog11 total score at Week 12, adjusted mean / Change from baseline in ADAS-Cog11 total score at Week 12, comparison vs. placebo, adjusted mean: MMRM, FAS (OC)
Text: This trial was designed to investigate whether compound I either alone as monotherapy or as an add-on therapy to acetylcholinesterase inhibitors can improve cognitive symptoms in patients with AD.
The primary endpoint was change from baseline in ADAS-Cog11 (Alzheimer's Disease Assessment Scale-cognitive subscale) total score after 12-week treatment. (Lower values in the ADAS-Cog11 score indicate better cognitive function.)
• 1) Diagnosis of mild-to-moderate Alzheimer's Disease Dementia according to the recommendations from the National Institute on Aging-Alzheimer's Association workgroups on diagnostic guidelines for Alzheimer's disease. • 2) Male or female patients at least 55 years of age. Patients older than 85 years could be included based on an acceptable general health status, (e.g. concomitant diseases, physical capability to follow the required study procedures (visits etc.)) at discretion of the investigator • 3) MMSE score of 15-26 at screening (Visit 1). • 4) Concomitant use of AChEIs allowed but not required. Key Exclusion Criteria • 1) Dementia secondary to disorders other than Alzheimer's Disease Dementia. • 2) Any central nervous system disease other than AD which according to the investigator may be associated with worsening of cognition. • 3) Any suicidal behaviour in the past 2 years (i.e. actual attempt, interrupted attempt, aborted attempt, or preparatory acts or behaviour). • 4) Any suicidal ideation of type 4 or 5 in the C-SSRS in the past 3 months (i.e. active suicidal thought with intent but without specific plan, or active suicidal thought with plan and intent). • 5) Previous participation in investigational drug studies of dementia of Alzheimer's Type within three months prior to screening. Patients having received any active treatment in studies targeting disease modification of AD are excluded.
Patients eligible for the trial were randomly assigned, in a 1:1:1:1:1 ratio to either • 2 mg compound I • 5 mg compound I • 10 mg compound I • 25 mg compound I • Placebo
An MCPMod approach combined with MMRM was used to test for the proof of concept in this trial.
(§1) Patients in the FAS were analysed according to the ITT principle, i.e. according to their randomised trial medication. The FAS was used for analyses of efficacy.
The primary endpoint was the change from baseline in ADAS-Cog11 total score after 12 weeks of treatment. The analyses for PoC and dose-finding were done using the MCPmod technique for MMRM.
Model includes fixed, categorical factors of planned treatment (p-value=0.3425), analysis visit (p-value=0.7890), baseline MMSE stratification factor (≥20, <20) (p-value≤0.0001), and planned treatment by analysis visit interaction (p-value=0.7534), as well as the continuous fixed covariate of baseline value (p-value≤0.0001) and baseline value by analysis visit interaction (p-value=0.1185).

[5] = test system: patients with schizophrenia; assay: Phase II CIAS trial: safety (AEs, laboratory tests, PANSS, C-SSRS)
Protocol: This was a 12-week, multi-centre, multi-national, randomised, double-blind, double-dummy, placebo-controlled, parallel-group trial in patients with clinically stable schizophrenia.
(§2) The TS included all patients who were randomised and were treated with ≥1 dose of trial medication. Patients in the TS were analysed according to the actual trial medication they received at randomisation. The TS was used for analyses of safety, demographics, and baseline characteristics.
Safety was assessed based on the frequency of AEs, recording of vital signs, ECG measurements, standard laboratory tests, physical examination, neurological examination, as well as PANSS and C-SSRS questionnaires.

[6] = test system: patients with schizophrenia; assay: Phase II CIAS trial: cognition by MCCB, compound I add-on to antipsychotics vs placebo; assay type: in vivo, human; parameters: Change from baseline in MCCB overall composite score at Week 12, adjusted mean / Change from baseline in MCCB overall composite score at Week 12, comparison vs. placebo, adjusted mean: scale not given here; settings: for Change from baseline in MCCB overall composite score at Week 12, adjusted mean: 12 weeks; for Change from baseline in MCCB overall composite score at Week 12, adjusted mean / Change from baseline in MCCB overall composite score at Week 12, comparison vs. placebo, adjusted mean: MMRM; for Change from baseline in MCCB overall composite score at Week 12, adjusted mean / Change from baseline in MCCB overall composite score at Week 12, comparison vs. placebo, adjusted mean / Proportion of responders, change from baseline in MCCB overall composite score at Week 12 / Responders, comparison vs. placebo, odds ratio: FAS; for Responders, comparison vs. placebo, odds ratio: logistic regression
Text: This trial was designed to investigate whether compound I as an add-on therapy to antipsychotics (except clozapine) can improve cognitive symptoms in patients with schizophrenia.
The primary endpoint was cognition assessed using the Measurement and Treatment Research to Improve Cognition in Schizophrenia (MATRICS) consensus cognitive battery (MCCB).
• 1) Men or women who are 18-50 years (inclusive) of age at time of consent with established schizophrenia (as per DSM-5) with the following clinical features: • Outpatient, with no hospitalization for worsening of schizophrenia within 3 months (hospitalization for social management and/or day hospital programs within this time are acceptable) prior to randomization • Medically stable over the prior 4 weeks and psychiatrically stable without symptom exacerbation within 3 months prior to randomization • patients who have no more than a “moderate severe” rating on the Positive and Negative Symptom Scale (PANSS) positive items P1, P3-P7 (item score≤5) and no more than a “moderate” rating on the PANSS positive item P2 (item score≤4) • 2) Current antipsychotic and concomitant psychotropic medications as assessed at Visit 1 must meet the criteria below: • a. patients may have up to 2 antipsychotics (typical and/or atypical) • b. patients must be maintained on current typical and/or atypical antipsychotics other than Clozapine and on current dose for at least 4 weeks prior to randomization and/or maintained on current long acting injectable antipsychotics and current dose for at least 3 months prior to randomization • c. patients must be maintained on current concomitant psychotropic medications, anticholinergics, antiepileptics and/or lithium for at least 3 months prior to randomization and on current dose for at least 4 weeks prior to randomization.
Patients eligible for the trial were randomly assigned, in a 1:1:1:1:2 ratio to either • 2 mg compound I • 5 mg compound I • 10 mg compound I • 25 mg compound I • Placebo
An MCPMod approach combined with MMRM was used to establish the proof of concept in this trial.
The null hypothesis was that there was a flat dose-response pattern across placebo and any dose of compound I within the tested dose range on the mean change in the MCCB overall composite score from baseline to Week 12. The alternative hypothesis was that there was a non-flat dose-response pattern indicating a benefit of compound I versus placebo.
as §1
The primary endpoint of this trial was the change from baseline in cognitive function as measured by the MCCB overall composite score after 12 weeks of treatment. The primary efficacy analysis was based on the full analysis set (FAS).
Model includes fixed, categorical factors of planned treatment, analysis visit, and planned treatment by analysis visit interaction, as well as the continuous fixed covariate of baseline value and baseline value by analysis visit interaction. Subject is treated as random effect. Unstructured covariance structure was used to fit the mixed model. Kenward-Roger was used to model degrees of freedom.

[7] = test system: patients with mild to moderate dementia due to AD; assay: AD trial: safety (AEs, laboratory tests); assay type: in vivo, human; settings: 25 mg treatment group
Protocol: This was a 12-week, multi-centre, multi-national, randomised, double-blind, double-dummy, placebo-controlled, parallel-group trial in patients with mild to moderate dementia due to AD.
as §2
Safety assessments included the frequency of AEs, recording of vital signs, ECG measurements, standard laboratory tests, physical examination, and C-SSRS questionnaires.

SMILES: C[C@@H](Oc1ccc(S(C)(=O)=O)cc1C(=O)N1C[C@@H]2C[C@]2(c2cc(C(F)(F)F)on2)C1)C(F)(F)F [compound I, [5-(methylsulfonyl)-2-{[(2R)-1,1,1-trifluoropropan-2-yl]oxy}phenyl] {(1R,5R)-1-[5-(trifluoromethyl)-1,2-oxazol-3-yl]-3-azabicyclo[3.1.0]hex-3-yl}methanone]
- CSF glycine increase and CSF level criteria (CSF glycine [1]): these criteria were met by the 10 mg dose
- CSF levels of compound I required for efficacy [2]: 1-2 × GlyT1 IC50
- Increase of CSF glycine at doses efficacious in animal cognition tasks (CSF glycine [3]): approximately 50%
- Change from baseline in ADAS-Cog11 total score at Week 12, adjusted mean ([4]; 2 mg once daily oral): −0.02
- Change from baseline in ADAS-Cog11 total score at Week 12, comparison vs. placebo, adjusted mean ([4]; 2 mg): 0.05
- Change from baseline in ADAS-Cog11 total score at Week 12, adjusted mean ([4]; 5 mg once daily oral): 0.23
- Change from baseline in ADAS-Cog11 total score at Week 12, comparison vs. placebo, adjusted mean ([4]; 5 mg): 0.30
- Change from baseline in ADAS-Cog11 total score at Week 12, adjusted mean ([4]; 10 mg once daily oral): 0.69
- Change from baseline in ADAS-Cog11 total score at Week 12, comparison vs. placebo, adjusted mean ([4]; 10 mg): 0.76
- Change from baseline in ADAS-Cog11 total score at Week 12, adjusted mean ([4]; 25 mg once daily oral): −0.08
- Change from baseline in ADAS-Cog11 total score at Week 12, comparison vs. placebo, adjusted mean ([4]; 25 mg): −0.02
- Dose-response of change from baseline in ADAS-Cog11 total score at Week 12 (MCPmod, 6 models) ([4]; 2 to 25 mg): no dose response relation was observed
- Secondary and further endpoints: ADCS-ADL, CIBIC+, cognitive composite, COWAT, VFT, Coding, Digit Span Backwards ([4]; change from baseline): no treatment differences indicative of a benefit were found
- Improvement of cognition in patients suffering from Alzheimer's disease ([4]; same doses regimen as CIAS): ineffective
- Haemoglobin, mean change from baseline at last on-treatment value ([5]; 2 mg): -0.2 g/L
- Haemoglobin, relative change from baseline ([5]; 2 mg): −0.1%
- Haemoglobin, mean change from baseline at last on-treatment value ([5]; 5 mg): -0.7 g/L
- Haemoglobin, relative change from baseline ([5]; 5 mg): −0.5%
- Haemoglobin, mean change from baseline at last on-treatment value ([5]; 10 mg): 3.3 g/L
- Haemoglobin, relative change from baseline ([5]; 10 mg): −2.3%
- Haemoglobin, mean change from baseline at last on-treatment value ([5]; 25 mg): 4.5 g/L
- Haemoglobin, relative change from baseline ([5]; 25 mg): −3.2%
- Headache (most frequently observed AE) ([5]; all dose groups vs placebo): reported more frequently in all dose groups of compound I than placebo
- Deaths ([5]; all treatment groups, 12 weeks): no deaths
- Patients reporting on-treatment AEs ([5]; any treatment arm): Approximately 50%
- Suicidal ideation and behaviour assessed using C-SSRS ([5]; compound I vs placebo): No significant differences
- Worsening of schizophrenia assessed by PANSS total score ([5]; in vivo): no worsening of schizophrenia
- Effect on cognition (dose considerations, Phase II trial) ([6]; 2 mg): ineffective
- Change from baseline in MCCB overall composite score at Week 12, adjusted mean ([6]; 2 mg once daily oral): 1.784
- Change from baseline in MCCB overall composite score at Week 12, comparison vs. placebo, adjusted mean ([6]; 2 mg once daily): 0.280
- Effect on cognition (dose considerations, Phase II trial) ([6]; 5 mg): numerically improved cognition in Asian subpopulation
- Change from baseline in MCCB overall composite score at Week 12, adjusted mean ([6]; 5 mg once daily oral): 1.641
- Change from baseline in MCCB overall composite score at Week 12, comparison vs. placebo, adjusted mean ([6]; 5 mg once daily): 0.137
- Effect on cognition (dose considerations, Phase II trial), primary endpoint ([6]; 10 mg): separated best from placebo
- Change from baseline in MCCB neurocognitive composite score at Week 12 ([6]; 10 mg and 25 mg treatment groups compared with placebo): A larger change from baseline was observed
- Change from baseline in MCCB overall composite score at Week 12, adjusted mean ([6]; 10 mg once daily oral): 3.486
- Change from baseline in MCCB overall composite score at Week 12, comparison vs. placebo, adjusted mean ([6]; 10 mg once daily): 1.982
- Effect on cognition (dose considerations, Phase II trial) ([6]; 25 mg): efficacy less consistent across analyses than the 10 mg dose
- Change from baseline in MCCB overall composite score at Week 12, adjusted mean ([6]; 25 mg once daily oral): 3.234
- Change from baseline in MCCB overall composite score at Week 12, comparison vs. placebo, adjusted mean ([6]; 25 mg once daily): 1.730
- Cognitive performance compared to placebo, phase 2 clinical trial ([6]; certain doses, patients having schizophrenia): improves cognitive performance
- Dose-response for change from baseline at Week 12 in MCCB overall composite T-score ([6]; doses of 2 to 25 mg): non-flat dose-response curve
- Proportion of responders, change from baseline in MCCB overall composite score at Week 12 ([6]; responder ≥3, 2 mg): 46.3%
- Responders, comparison vs. placebo, odds ratio ([6]; responder ≥3, 2 mg): 1.184
- Proportion of responders, change from baseline in MCCB overall composite score at Week 12 ([6]; responder ≥3, 5 mg): 42.3%
- Responders, comparison vs. placebo, odds ratio ([6]; responder ≥3, 5 mg): 1.006
- Proportion of responders, change from baseline in MCCB overall composite score at Week 12 ([6]; responder ≥3, 10 mg): 61.5%
- Responders, comparison vs. placebo, odds ratio ([6]; responder ≥3, 10 mg): 2.200
- Proportion of responders, change from baseline in MCCB overall composite score at Week 12 ([6]; responder ≥3, 25 mg): 47.4%
- Responders, comparison vs. placebo, odds ratio ([6]; responder ≥3, 25 mg): 1.241
- Proportion of responders, change from baseline in MCCB overall composite score at Week 12 ([6]; responder ≥4, 2 mg): 40.3%
- Responders, comparison vs. placebo, odds ratio ([6]; responder ≥4, 2 mg): 1.298
- Proportion of responders, change from baseline in MCCB overall composite score at Week 12 ([6]; responder ≥4, 5 mg): 38.0%
- Responders, comparison vs. placebo, odds ratio ([6]; responder ≥4, 5 mg): 1.180
- Proportion of responders, change from baseline in MCCB overall composite score at Week 12 ([6]; responder ≥4, 10 mg): 52.6%
- Responders, comparison vs. placebo, odds ratio ([6]; responder ≥4, 10 mg): 2.131
- Proportion of responders, change from baseline in MCCB overall composite score at Week 12 ([6]; responder ≥4, 25 mg): 41.0%
- Responders, comparison vs. placebo, odds ratio ([6]; responder ≥4, 25 mg): 1.338
- Proportion of responders, change from baseline in MCCB overall composite score at Week 12 ([6]; responder ≥5, 2 mg): 35.8%
- Responders, comparison vs. placebo, odds ratio ([6]; responder ≥5, 2 mg): 1.370
- Proportion of responders, change from baseline in MCCB overall composite score at Week 12 ([6]; responder ≥5, 5 mg): 32.4%
- Responders, comparison vs. placebo, odds ratio ([6]; responder ≥5, 5 mg): 1.176
- Proportion of responders, change from baseline in MCCB overall composite score at Week 12 ([6]; responder ≥5, 10 mg): 44.9%
- Responders, comparison vs. placebo, odds ratio ([6]; responder ≥5, 10 mg): 1.998
- Proportion of responders, change from baseline in MCCB overall composite score at Week 12 ([6]; responder ≥5, 25 mg): 39.7%
- Responders, comparison vs. placebo, odds ratio ([6]; responder ≥5, 25 mg): 1.619
- Decrease of haemoglobin levels, maximum effect [7]: 5.7%
